From patent publication US12516388B2, “Biosensors for polyketide extender units and uses thereof” (NORTH CAROLINA STATE UNIVERSITY, priority 2019, dated 2026)

What was measured:
[1] = biological target: T1, FapR (Bacillus subtilis, UniProt O34835); experiment: Cell-free transcription-translation (TX-TL) FapR/T7-fapO-sfGFP assay; format: biochemical, B. subtilis; design: made in house; host or cells: E. coli BL21(DE3); conditions: for effector of FapR as judged by cell-free fluorescence / fluorescence response (de-repression of FapR/T7-fapO-sfGFP) compared among thioesters: each thioester at fixed concentration (150 μM)
Excerpt: To this end, the reporter module of the FapR 2H8 biosensor was cloned into pET28a, replacing the typical lacO site controlling the T7 promoter with a single fapO binding site upstream of the sfGFP gene, producing pET28a-T7-fapO-sfGFP (FIG. 5C). Each α-carboxyacyl-CoA was generated enzymatically from the corresponding malonic acid and CoA using the wild-type malonyl-CoA synthetase MatB or the engineered MatB variant, T207G/M306I. Next, the response of the cell-free TX-TL biosensor assay was evaluated by using various concentrations of MatB-generated native effector, mCoA, along with a fixed amount of purified FapR and T7-fapO-sfGFP. […] In addition, the maximum fluorescence signal was ˜15-fold greater than that in the absence of mCoA. Furthermore, to account for potential inhibition of the cell-free biosensor by the MatB reaction mixture, the FapR system was also assayed using a commercial standard of mCoA.
Dose-response analysis of the cell-free TX-TL FapR assay. A premixed solution for cell-free transcription-translation reactions was purchased from New England Biolabs (PURExpress In Vitro Protein Synthesis Kit). To a PCR tube on ice were added (in the order shown): 4 μL Solution A, 3 μL Solution B, 2.5 μM FapR, 250 nM T7-fapO-sfGFP and 0-150 μM of MatB-generated or commercial mCoA in a total volume of 10 μL. In parallel, control reactions in the absence of thioester were assembled by using boiled MatB in the presence of malonic acid. The reaction was incubated for 16 h at 37° C. and then diluted with PBS buffer to give a final total volume of 50 μL.
Cell-Free Characterization of FapR Promiscuity. A commercial kit for cell-free transcription-translation reactions was purchased from New England Biolabs (PURExpress In Vitro Protein Synthesis Kit). To a PCR tube on ice were added (in the order shown): 4 μL Solution A, 3 μL Solution B, 2.5 μM FapR, 250 nM T7-fapO-sfGFP and 150 μM of MatB-generated acyl-CoA or mmSNAC in a total volume of 10 μL (FIG. 9). In parallel, control reactions in the absence of thioester were assembled by using boiled MatB. The reaction was incubated for 16 h at 37° C. and then diluted with PBS buffer to give a final total volume of 50 μL.
Target sequence in this assay (O34835 other isoform, or with tags, fused parts or gaps): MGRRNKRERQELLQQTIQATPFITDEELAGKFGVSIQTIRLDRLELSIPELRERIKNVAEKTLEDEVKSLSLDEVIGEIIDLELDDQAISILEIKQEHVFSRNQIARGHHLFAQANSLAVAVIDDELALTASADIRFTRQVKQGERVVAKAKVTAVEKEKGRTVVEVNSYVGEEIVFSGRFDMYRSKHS

[2] = biological target: T1, FapR; conditions: previously reported; cited from earlier work
Target sequence in this assay (O34835 whole entry): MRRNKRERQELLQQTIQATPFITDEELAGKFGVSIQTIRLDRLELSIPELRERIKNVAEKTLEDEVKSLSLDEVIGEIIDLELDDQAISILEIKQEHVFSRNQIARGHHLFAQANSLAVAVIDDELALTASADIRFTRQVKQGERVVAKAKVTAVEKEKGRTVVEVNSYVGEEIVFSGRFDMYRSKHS

[3] = biological target: T2, FapR-fapO complex (Bacillus subtilis, UniProt O34835); experiment: Electrophoretic mobility shift assay of FapR and fapO; format: binding, B. subtilis; conditions: titrated against FapR, 40 bp fapO fragment; read-out: concentration at which half of the DNA would be bound
T2 construct: made in house; host or cells: E. coli BL21(DE3)
T2 sequence (O34835 other isoform, or with tags, fused parts or gaps): as the sequence (O34835 other isoform, or with tags, fused parts or gaps) above
Experimental: Next, the cell-free FapR biosensor was assayed with each α-carboxyacyl-CoA at a fixed concentration (150 μM). […] This robust activity of pgmCoA is due in part to the increased rigidity of the alkyne side-chain or additional interactions of the alkynyl […] with the FapR ligand-binding site, with the […] side-chain of the nearby Phe99 (FIG. 5A). […] To provide further evidence that FapR is de-repressed by derivatives of mCoA, FapR was tested in vitro for DNA-binding and release by electrophoretic mobility shift assay (EMSA) in the presence of mCoA or mmCoA. Using purified wild-type FapR protein, EMSA was run with a 40 bp DNA fragment containing the fapO binding site (FIG. 7).
Electrophoretic mobility shift assay. The fapO oligonucleotides 5′-[…]-3′ (SEQ ID NO:30) and 5′-[…]-3′ (SEQ ID NO:31) were annealed per standard procedure. Briefly, the two oligos were added to a final concentration of 10 μM each in annealing buffer (19 mM Tris, pH 7.5, 50 mM NaCl, 1 mM EDTA) and heated to 95° C. for 2 minutes before cooling to 25° C. at a rate of −1° C. min^−1. […] Reactions were then analyzed by electrophoresis on a 6% PAGE gel at 220 V. The gel was stained with SYBR Green I and imaged on a Typhoon FLA 7000.

| Compound | effector of FapR as judged by cell-free fluorescence ([1]; FIG. 5D) | fluorescence response (de-repression of FapR/T7-fapO-sfGFP) compared among thioesters ([1]; FIG. 5D) | effector status for FapR [2] | further results |
| --- | --- | --- | --- | --- |
| C#CCC(C(=O)O)C(=O)SCCNC(=O)CCNC(=O)[C@H](O)C(C)(C)COP(=O)(O)OP(=O)(O)OC[C@H]1O[C@@H](n2cnc3c(N)ncnc32)[C@H](O)[C@@H]1OP(=O)(O)O (stereo partly drawn) [pgmCoA, propargylmalonyl-CoA] | identified as effectors | indistinguishable from that of mCoA and mmCoA |  |  |
| CC(=O)SCCNC(=O)CCNC(=O)[C@H](O)C(C)(C)COP(=O)(O)OP(=O)(O)OC[C@H]1O[C@@H](n2cnc3c(N)ncnc32)[C@H](O)[C@@H]1OP(=O)(O)O [acetyl-CoA] |  |  | non-effectors |  |
| CC(C)(COP(=O)(O)OP(=O)(O)OC[C@H]1O[C@@H](n2cnc3c(N)ncnc32)[C@H](O)[C@@H]1OP(=O)(O)O)[C@@H](O)C(=O)NCCC(=O)NCCSC(=O)CCC(=O)O [succinyl-CoA] |  |  | non-effectors |  |
| CC(C(=O)O)C(=O)SCCNC(=O)CCNC(=O)[C@H](O)C(C)(C)COP(=O)(O)OP(=O)(O)OC[C@H]1O[C@@H](n2cnc3c(N)ncnc32)[C@H](O)[C@@H]1OP(=O)(O)O (stereo partly drawn) [mmCoA, methylmalonyl-CoA] |  | statistically indistinguishable from that with the native ligand, mCoA |  |  |
| CCCCC(C(=O)O)C(=O)SCCNC(=O)CCNC(=O)[C@H](O)C(C)(C)COP(=O)(O)OP(=O)(O)OC[C@H]1O[C@@H](n2cnc3c(N)ncnc32)[C@H](O)[C@@H]1OP(=O)(O)O (stereo partly drawn) [bmCoA, butylmalonyl-CoA] | identified as effectors | poorest effectors |  |  |
| CCC(=O)SCCNC(=O)CCNC(=O)[C@H](O)C(C)(C)COP(=O)(O)OP(=O)(O)OC[C@H]1O[C@@H](n2cnc3c(N)ncnc32)[C@H](O)[C@@H]1OP(=O)(O)O [propionyl-CoA] | de-repression was not observed |  | non-effectors |  |
| CC(=O)NCCSC(=O)C(C)C(=O)O (stereo not drawn) [mmSNAC] | determined to be an effector |  |  | de-repression activity relative to the corresponding CoA thioester ([1]; 150 μM, fluorescence assay, FIG. 5D): ~50% |
| CCC(C(=O)O)C(=O)SCCNC(=O)CCNC(=O)[C@H](O)C(C)(C)COP(=O)(O)OP(=O)(O)OC[C@H]1O[C@@H](n2cnc3c(N)ncnc32)[C@H](O)[C@@H]1OP(=O)(O)O (stereo partly drawn) [emCoA, ethylmalonyl-CoA] | identified as effectors | poorest effectors |  |  |
| CC(C)(COP(=O)(O)OP(=O)(O)OC[C@H]1O[C@@H](n2cnc3c(N)ncnc32)[C@H](O)[C@@H]1OP(=O)(O)O)[C@@H](O)C(=O)NCCC(=O)NCCSC(=O)CC(=O)O [mCoA, malonyl-CoA] |  |  |  | EC50 [3]: 200 µM; maximum fluorescence signal relative to absence of mCoA ([1]; 0-150 μM mCoA): ~15 fold; concentration range with linear fluorescence output of the cell-free biosensor ([1]; MatB-generated mCoA, 2.5 μM FapR, 250 nM T7-fapO-sfGFP): up to 150 μM; fluorescence output, MatB-generated versus commercial mCoA ([1]; dose-response, FIG. 6): no significant difference |
| CCCC(=O)SCCNC(=O)CCNC(=O)[C@H](O)C(C)(C)COP(=O)(O)OP(=O)(O)OC[C@H]1O[C@@H](n2cnc3c(N)ncnc32)[C@H](O)[C@@H]1OP(=O)(O)O [butyryl-CoA] |  |  | non-effectors |  |
